Measured values reported in patent publication US20230346737A1, “COMPOUNDS AND METHODS FOR PREVENTION AND TREATMENT OF VIRUS INFECTIONS” (priority 2020, published 2023).
pIC50: −log10 of the molar value.

These compounds were tested against T1, sodium taurocholate cotransporting polypeptide (NTCP) (Homo sapiens, UniProt Q14973) (assay: PreS1-NTCP pull down assay). Settings: 0, 10, 20 and 100 μM.
T1 construct: expressed in transfected cells; host or cells: Huh7 (NTCP); E. coli BL21(DE3) (GST fusion bait)
T1 sequence (Q14973 1-349): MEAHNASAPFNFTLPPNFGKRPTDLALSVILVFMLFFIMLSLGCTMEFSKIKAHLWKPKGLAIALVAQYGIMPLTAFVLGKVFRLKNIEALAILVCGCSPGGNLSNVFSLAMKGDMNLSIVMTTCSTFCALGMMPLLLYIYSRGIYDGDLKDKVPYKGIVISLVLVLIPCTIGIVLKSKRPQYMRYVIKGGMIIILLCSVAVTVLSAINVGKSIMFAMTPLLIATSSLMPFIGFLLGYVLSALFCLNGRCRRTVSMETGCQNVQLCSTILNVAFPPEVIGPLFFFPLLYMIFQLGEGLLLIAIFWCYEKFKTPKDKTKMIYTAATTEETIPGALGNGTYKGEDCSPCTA
Format: binding
Protocol: Expression and purification of recombinant fusion proteins and the GST pull-down assay were performed as described previously. Briefly, expression of GST fusion proteins in E. coli BL21(DE3) was induced with 0.5 mM isopropyl-β-D-thiogalactopyranoside, then the bacterial cells were lysed by sonication at 4° C. in PBS containing 1% Triton X-100 (PBST) and separated into soluble and insoluble fractions by centrifugation at 13,800 g for 10 min at 4° C. To perform GST pull-down assays, the soluble fraction of bacterial lysates containing GST-fusion proteins was incubated for 3 hours at 4° C. with glutathione-Sepharose 4B beads (GE Healthcare Bio-Sciences), then the beads were washed 3 times with PBST before being incubated at 4° C. overnight with Huh7 cell lysate with overexpressed IA-NTCP prepared by lysis in PBST containing a protease inhibitor cocktail (1 mM PMSF, 10 μg/ml of aprotinin, 1 μg/ml of pepstatin A, 1 μg/ml of leupeptin). The beads were then washed with PBST, resuspended in sample buffer (12.5 mM Tris-HCl, pH 6.8, 2% SDS, 20% glycerol, 0.25% bromphenol blue, 5% b-mercaptoethanol), and subjected to SDS-polyacrylamide gel electrophoresis and examined by Western blot analysis.
To evaluate the effects of inhibitor on inhibiting HBV infection, cell lysis extracted from cells treated with AR101-DS3 or AR101-DS4.

Question: For `C=C(CC[C@@H](C(=O)O)[C@H]1CC[C@@]2(C)C3=CC[C@H]4C(C)(C)[C@@H](O)CC[C@]4(C)C3=CC[C@]12C)C(C)C` [AR101-DS4], which “amount of NTCP from pull down assay” value is on record?
Answer: significant decreased

Question: `C=C(CC[C@@H](C(=O)O)[C@H]1C[C@H](OC(C)=O)[C@@]2(C)C3=C(CC[C@]12C)[C@@]1(C)CC[C@H](O)C(C)(C)[C@@H]1CC3)C(C)C` [AR101-DS3] was tested. Which “amount of NTCP from pull down assay” value did it give?
Answer: dose dependent increase

These compounds were tested against T2, SARS-CoV-2 3CLpro (Severe acute respiratory syndrome coronavirus 2, UniProt P0DTD1) (assay: Real-time FRET protease assay with SARS-CoV-2 3CLpro and dose-response curve analysis). Settings: not given.
T2 construct: containing 0.25 μM SARS-CoV-2 3CLpro
Format: biochemical

Question: How did the pIC50 turn out when `CC1=CCC(C(C)(C)O)C[C@@H]1O` (stereo partly drawn) [ARH013-DS1, trans-p-menth-6-ene-2,8-diol] was run?
Answer: 4.48

Same assay, conditions: Real-Time; 0-100 μM, pre-incubated 1 h at 37° C. with 0.25 μM 3CLpro; read-out: IC50 (μM), inhibition of SARS-CoV-2 3CLpro (Real-Time)

Question: `C=C1CCCC(C)(C)C1Cc1c(O)cc2oc(-c3ccc(O)c(O)c3)cc(=O)c2c1O` (stereo not drawn) [ARH 020-DS1, ugonin J] was tested. Which IC50 did it give?
Answer: 14.9 µM

Question: How did the IC50 turn out when `CC(=O)O[C@@H]1[C@@H](O)[C@@H](OC(C)=O)[C@H](Oc2c(-c3ccc(O)cc3)oc3cc(O)cc(O)c3c2=O)O[C@H]1C` [ARH 007-DS5, kaempferol-3-O-(2,4-O-diacetyl-Alpha-L-rhamnopyranoside)] was run?
Answer: 48.2 µM

Question: With `O=c1cc(O)oc(/C=C/c2ccc(O)c(O)c2)c1` [ARH 019-DS2, 2-[(E)-2-(3,4-dihydroxyphenyl)ethenyl]-6-hydroxypyran-4-one] as the compound, how does the IC50 read?
Answer: 2.49 µM

Question: Which IC50 does the source give for `CC(=O)O[C@@H]1[C@@H](OC(C)=O)[C@@H](O)[C@H](Oc2c(-c3ccc(O)cc3)oc3cc(O)cc(O)c3c2=O)O[C@H]1C` [ARH 007-DS4, kaempferol-3-O-(3,4-O-diacetyl-Alpha-L-rhamnopyranoside)] here?
Answer: 18.8 µM

Question: How did the IC50 turn out when `CC1(C)CCC[C@@]2(C)Oc3c(O)ccc(-c4oc5cc(O)cc(O)c5c(=O)c4O)c3C[C@@H]12` [ARH 020-DS2, ugonin N] was run?
Answer: 6.33 µM

Question: For `CC(=O)/C=C(O)/C=C/c1ccc(O)c(O)c1` [ARH 019-DS1, 6-(3,4-dihydroxyphenyl)-4-hydroxyhexa-3,5-dien-2-one], which IC50 is on record?
Answer: 19.2 µM
